Key:
L1210 = assay: Growth inhibition against mouse leukemia L1210 cell line; type: functional, cell-based
HCT-8 = assay: Growth inhibition against human colon carcinoma HCT-8 cell line; type: functional, cell-based

| Structure (SMILES) | IC50 (L1210) [µM] | IC50 (HCT-8) [µM] |
| --- | --- | --- |
| CCN(CC)CCN1Nc2c3ccccc3nc3c(NC(C)=O)ccc1c23 | > 10 |  |
| CCN(CC)CCN1Nc2c3cc(C)ccc3nc3c([N+](=O)[O-])ccc1c23 | 0.863 | 0.786 |
| CCN(CC)CCN1Nc2c3cc(S(C)(=O)=O)ccc3nc3c([N+](=O)[O-])ccc1c23 | 1.83 | 0.774 |
| COc1ccc2c(c1)-c1nn(CCN(C)C)c3ccc([N+](=O)[O-])c(c13)N2 | 0.396 | 0.105 |
| CCN(CC)CCN1Nc2c3ccccc3nc3c([N+](=O)[O-])ccc1c23 | 0.192 | 0.185 |
| CCN(CC)CCCN1Nc2c3cc(OC)ccc3nc3c([N+](=O)[O-])ccc1c23 | 1.33 | 0.764 |
| CCCCOc1ccc2c(c1)-c1nn(CCNCCO)c3ccc([N+](=O)[O-])c(c13)N2 | 0.646 | 0.339 |
| CCOc1ccc2c(c1)-c1nn(CCCN(C)C)c3ccc([N+](=O)[O-])c(c13)N2 |  | 0.055 |
| O=[N+]([O-])c1ccc2c3c(c4ccccc4nc13)NN2CCNCCO | 0.218 | 0.152 |
| CCOc1ccc2c(c1)-c1nn(CCNCCO)c3ccc([N+](=O)[O-])c(c13)N2 | 0.325 | 0.082 |
| CCCOc1ccc2c(c1)-c1nn(CCN(CC)CC)c3ccc([N+](=O)[O-])c(c13)N2 | 0.469 | 0.031 |
| COc1ccc2c(c1)-c1nn(CCO)c3ccc([N+](=O)[O-])c(c13)N2 | > 10 | > 10 |
| CCN(CC)CCN1Nc2c3cc(OCc4ccccc4)ccc3nc3c([N+](=O)[O-])ccc1c23 | 2.68 | 1.14 |
| CCOc1ccc2c(c1)-c1nn(CCN(CC)CC)c3ccc([N+](=O)[O-])c(c13)N2 |  | 0.114 |
| CCN(CC)CCN1Nc2c3cc(O[Si](C)(C)C(C)(C)C)ccc3nc3c([N+](=O)[O-])ccc1c23 | 0.006 | 0.006 |
| CCN(CC)CCN1Nc2c3cc(OC)ccc3nc3c([N+](=O)[O-])cc([N+](=O)[O-])c1c23 | 0.399 | 0.066 |
| Cc1ccc2c(c1)-c1nn(CCNCCO)c3ccc([N+](=O)[O-])c(c13)N2 | 0.592 | 0.255 |
| CCN(CC)CCn1nc2c3c(c(N)ccc31)N(C)c1ccccc1-2 | > 10 | 1.56 |
| CSc1ccc2c(c1)-c1nn(CCCN(C)C)c3ccc([N+](=O)[O-])c(c13)N2 | 0.513 | 0.352 |
| CN1c2ccccc2-c2nn(CCNCCO)c3ccc([N+](=O)[O-])c1c23 | 0.51 | 0.518 |
| CCN(CC)CCn1nc2c3c(c([N+](=O)[O-])ccc31)N(C)c1ccc(OC)cc1-2 | 0.605 | 0.308 |
| CCN(CC)CCN1Nc2c3cc(N(C)C)ccc3nc3c([N+](=O)[O-])ccc1c23 | 0.896 | 0.317 |

| Structure (SMILES) | IC50 (L1210) [µM] | IC50 (HCT-8) [µM] |
| --- | --- | --- |
| CCOc1ccc2c(c1)-c1nn(CCN(C)C)c3ccc([N+](=O)[O-])c(c13)N2 | 0.275 | 0.025 |
| CN1Nc2c3ccccc3nc3c([N+](=O)[O-])ccc1c23 | > 10 |  |
| COc1ccc2c(c1)-c1nn(CCN(C)C)c3c([N+](=O)[O-])cc([N+](=O)[O-])c(c13)N2 | 0.049 | 0.015 |
| CCCCOc1ccc2c(c1)-c1nn(CCN(CC)CC)c3ccc([N+](=O)[O-])c(c13)N2 | 1.18 | 0.073 |
| CCN(CC)CCN1Nc2c3cc(OC(=O)C(C)(C)C)ccc3nc3c([N+](=O)[O-])ccc1c23 | 0.01 | 0.01 |
| CC(=O)Oc1ccc2nc3c([N+](=O)[O-])ccc4c3c(c2c1)NN4CCCN(C)C | 0.001 | 0.011 |
| CCN(CC)CCN1Nc2c3cc(OC)ccc3nc3c([N+](=O)[O-])ccc1c23 | 0.469 | 0.123 |
| CCNCCN1Nc2c3cc(OC)ccc3nc3c([N+](=O)[O-])ccc1c23 | 0.208 | 0.124 |
| CN(C)CCCN1Nc2c3cc(OC(=O)C(C)(C)C)ccc3nc3c([N+](=O)[O-])ccc1c23 | 0.008 | 0.027 |
| CCN(CC)CCN1Nc2c3cccc(OC)c3nc3c([N+](=O)[O-])ccc1c23 | 0.645 | 0.506 |
| CCN(CC)CCn1nc2c3c(c(/N=C/N(C)C)ccc31)N(C)c1ccccc1-2 | 0.785 | 0.297 |
| CCN(CC)CCN1c2ccccc2-c2nn(CCN(CC)CC)c3ccc([N+](=O)[O-])c1c23 | 0.877 | 0.788 |
| O=[N+]([O-])c1ccc2c3c(c4ccccc4nc13)NN2CCO | > 10 |  |
| C=Cn1nc2c3c(c([N+](=O)[O-])ccc31)N(C)c1ccccc1-2 | > 10 |  |
| CCN(CC)CCn1nc2c3c(c([N+](=O)[O-])ccc31)N(C)c1ccccc1-2 | 0.618 | 0.901 |
| CN(C)CCCN1Nc2c3cc(O)ccc3nc3c([N+](=O)[O-])ccc1c23 | 0.002 |  |
| CCN(CC)CCN1Nc2c3cc(OC(C)=O)ccc3nc3c([N+](=O)[O-])ccc1c23 | 0.004 | 0.005 |
| C=CCN1c2ccccc2-c2nn(CCNCCO)c3ccc([N+](=O)[O-])c1c23 | 2.71 | 1.22 |
| CN(C)CCN1Nc2c3cc(N(C)C)ccc3nc3c([N+](=O)[O-])ccc1c23 | 0.601 | 0.164 |
| COc1ccc2c(c1)-c1nn(CCNCCO)c3ccc([N+](=O)[O-])c(c13)N2 | 0.45 | 0.193 |
| COc1ccc2c(c1)-c1nn(CCCN(C)C)c3ccc([N+](=O)[O-])c(c13)N2 [PYRAZOLOACRIDINE] | 0.424 | 0.136 |
